Where two headings read alike, the source gives them in different places.

This assay has as its system recombinant rabies virus 1088 strain expressing Gaussia Luciferase (GLuc) (1088/GLuc). It counts as cell-based.

For `CC(C)CC[C@@H]1[C@@H]2CN[C@@]3(C(=O)NCCO)[C@@H](C2)CN(Cc2ccccc2)[C@@H]13` (relative stereo) [IB-680], the IC50 (read-out: Anti-rabies activity) is 10 to 30 µM.
Still for that read-out and setting: then `O=C(NCCO)[C@]12NC[C@@H]3C[C@H]1CN(Cc1ccccc1)[C@H]2[C@@H]3CCc1ccccc1` (relative stereo) [IB-681], with 10 to 30 µM; and `CC(C)CCNC(=O)[C@]12NC[C@@H]3C[C@H]1CN(CC(C)C)[C@H]2[C@@H]3Cc1ccc(O)cc1` (relative stereo) [IB-684], with 10 to 30 µM; and `CC(C)CN1C[C@@H]2C[C@H]3CN[C@]2(C(=O)NCCO)[C@@H]1[C@@H]3Cc1cccc2ccccc12` (relative stereo) [IB-687], with 10 to 30 µM.
The same measure, in the same setting: under `CC(C)CCNC(=O)[C@]12NC[C@@H]3C[C@H]1CN(CC(C)C)[C@H]2[C@@H]3CCc1ccccc1` (relative stereo) [IB-688] stands less than 5 µM; under `CC(C)CC[C@@H]1[C@@H]2CN[C@@]3(C(=O)NCc4ccccc4)[C@@H](C2)CN(CCC(=O)O)[C@@H]13` (relative stereo) [IB-694], 10 to 30 µM; under `CC(C)CCN1C[C@@H]2C[C@H]3CN[C@]2(C(=O)NCCC(N)=O)[C@@H]1[C@@H]3Cc1cccc2ccccc12` (relative stereo) [IB-703], less than 5 µM.
Regarding `CC(C)CCN1C[C@@H]2C[C@H]3CN[C@]2(C(=O)NCC(C)C)[C@@H]1[C@@H]3CC(C)C` (relative stereo) [IB-753], under “read-out: Anti-rabies activity”, the IC50 is less than 5 µM.
For `CC(C)C[C@@H]1[C@@H]2CN[C@@]3(C(=O)NCc4ccccc4)[C@@H](C2)CN(CCc2ccccc2)[C@@H]13` (relative stereo) [IB-757], the IC50 (read-out: Anti-rabies activity) was less than 5 µM.
Same read-out and setting: then `CC(C)CNC(=O)[C@]12NC[C@@H]3C[C@H]1CN(CCc1ccccc1)[C@H]2[C@@H]3Cc1ccccc1` (relative stereo) [IB-759], with less than 5 µM; and `CC(C)CNC(=O)[C@]12NC[C@@H]3C[C@H]1CN(CCc1ccccc1)[C@H]2[C@@H]3CC(C)C` (relative stereo) [IB-760], with less than 5 µM.
Still for that read-out and setting: under `CC(C)CNC(=O)[C@]12NC[C@@H]3C[C@H]1CN(Cc1cccc4ccccc14)[C@H]2[C@@H]3CC(C)C` (relative stereo) [IB-762] stands less than 5 µM; under `CC(C)CNC(=O)[C@]12NC[C@@H]3C[C@H]1CN(Cc1cccc4ccccc14)[C@H]2[C@@H]3Cc1ccc(O)cc1` (relative stereo) [IB-763], 10 to 30 µM.
On to `CC(C)CNC(=O)[C@]12NC[C@@H]3C[C@H]1CN(CC1CCCCC1)[C@H]2[C@@H]3Cc1ccc(O)cc1` (relative stereo) [IB-770], for which the IC50 (read-out: Anti-rabies activity) was 10 to 30 µM.
The same measure, in the same setting: under `O=C(NCc1ccccc1)[C@]12NC[C@@H]3C[C@H]1CN(Cc1ccc(F)cc1)[C@H]2[C@@H]3Cc1ccccc1` (relative stereo) [IB-772] stands less than 5 µM; under `CC(C)C[C@@H]1[C@@H]2CN[C@@]3(C(=O)NCc4ccccc4)[C@@H](C2)CN(Cc2ccc(F)cc2)[C@@H]13` (relative stereo) [IB-773], less than 5 µM.
Same read-out and setting: then `CC(C)CNC(=O)[C@]12NC[C@@H]3C[C@H]1CN(Cc1ccc(F)cc1)[C@H]2[C@@H]3CCc1ccccc1` (relative stereo) [IB-774], with less than 5 µM; and `O=C(NCc1ccccc1)[C@]12NC[C@@H]3C[C@H]1CN(Cc1ccccc1)[C@H]2[C@@H]3Cc1cccc2ccccc12` (relative stereo) [IB-777], with less than 5 µM.
Same read-out and setting: then `CC(C)CCNC(=O)[C@]12NC[C@@H]3C[C@H]1CN(CC(C)C)[C@H]2[C@@H]3Cc1ccccc1` (relative stereo) [IB-780], with less than 5 µM.
For the molecule `CC(C)CN1C[C@@H]2C[C@H]3CN[C@]2(C(=O)NCc2ccccc2)[C@@H]1[C@@H]3Cc1ccc(O)cc1` (relative stereo) [IB-783], under “read-out: Anti-rabies activity”, the IC50 was 10 to 30 µM.
The same measure, in the same setting: then `CC(C)CC[C@@H]1[C@@H]2CN[C@@]3(C(=O)NCc4ccccc4)[C@@H](C2)CN(Cc2ccc(O)cc2)[C@@H]13` (relative stereo) [IB-786], with 10 to 30 µM; and `CC(C)C[C@@H]1[C@@H]2CN[C@@]3(C(=O)NCc4ccccc4)[C@@H](C2)CN(Cc2ccc(O)cc2)[C@@H]13` (relative stereo) [IB-787], with 10 to 30 µM.
As for `CC(C)CN1C[C@H]2C[C@]3(C(=O)NCc4ccccc4)NC[C@H]2[C@H]1[C@H]3Cc1ccccc1` (relative stereo) [IF-1, (3S*, 3aS*, 6S*, 7R*, 7aS*) -N, 7-dibenzyl-1-isobutyloctahydro-6H-3,6-methanopyrrolo[3,2-c]pyridine-6-carboxamide], the IC50 is 10 to 30 µM (read-out: Anti-rabies activity) and 12.6 µM (read-out: IC50).
`CC(C)CNC(=O)[C@@]12C[C@@H]3CN(Cc4ccccc4)[C@@H]([C@@H]3CN1)[C@H]2Cc1ccccc1` (relative stereo) [IF-6]: the IC50 is 10 to 30 µM (read-out: Anti-rabies activity) and 16.3 µM (read-out: IC50).
On the same counts, the results for `CC(C)CN1C[C@H]2C[C@]3(C(=O)NCc4ccccc4)NC[C@H]2[C@H]1[C@H]3CCc1ccccc1` (relative stereo) [IF-11] are 10 to 30 µM and 17.5 µM.
On the same counts, the results for `Cc1cccc(C[C@@H]2[C@@H]3[C@@H]4CN[C@@]2(C(=O)NCc2ccccc2)C[C@@H]4CN3CC(C)C)c1` (relative stereo) [IF-13] are 10 to 30 µM and 13.1 µM.
For the molecule `Cc1ccc(C[C@@H]2[C@@H]3[C@@H]4CN[C@@]2(C(=O)NCc2ccccc2)C[C@@H]4CN3CC(C)C)cc1` (relative stereo) [IF-14], the IC50 reads like this: (read-out: Anti-rabies activity) 10 to 30 µM; (read-out: IC50) 14.1 µM.
`Cc1cccc(CNC(=O)[C@@]23C[C@@H]4CN(CC(C)C)[C@@H]([C@@H]4CN2)[C@H]3Cc2ccccc2)c1` (relative stereo) [IF-15]: the IC50 runs as follows: (read-out: Anti-rabies activity) 10 to 30 µM; (read-out: IC50) 17.1 µM.
Turning to `CC(C)C[C@@H]1[C@@H]2[C@@H]3CN[C@@]1(C(=O)NCc1ccc(Cl)c(Cl)c1)C[C@@H]3CN2Cc1ccccc1` (relative stereo) [IF-20], the IC50 is, setting by setting: (read-out: Anti-rabies activity) 10 to 30 µM; (read-out: IC50) 11.6 µM.
Take `CC(C)CN1C[C@H]2C[C@]3(C(=O)NCc4ccccc4)NC[C@H]2[C@H]1[C@H]3CC1CCCCC1` (relative stereo) [IF-38]: the IC50 (read-out: Anti-rabies activity) was in the range of 10 to 30 µM.
On the same count and under the same terms, then `O=C(NCc1ccccc1)[C@@]12C[C@@H]3CN(Cc4cccc5ccccc45)[C@@H]([C@@H]3CN1)[C@H]2Cc1ccccc1` (relative stereo) [IF-42], with 10 to 30 µM.
On to `CCN1C[C@@H]2[C@H]3CN(CC(C)C)[C@@H]2[C@@H](Cc2ccccc2)[C@]1(C(=O)NCc1ccccc1)C3` (relative stereo) [IF-69], for which the IC50 (read-out: Anti-rabies activity) lay in the range of 10 to 30 µM and the IC50 (read-out: IC50) is 16.5 µM.
As to `CC(C)C[C@@H]1[C@@H]2[C@@H]3CN[C@@]1(C(=O)NCc1cccc4ccccc14)C[C@@H]3CN2CC(N)=O` (relative stereo) [IF-81], the IC50 (read-out: Anti-rabies activity) fell in the range of 10 to 30 µM.
Turning to `NC(=O)CN1C[C@H]2C[C@]3(C(=O)NCc4cccc5ccccc45)NC[C@H]2[C@H]1[C@H]3Cc1ccccc1` (relative stereo) [IF-82], the IC50 (read-out: Anti-rabies activity) was 10 to 30 µM.
With `CC(C)CC[C@@H]1[C@@H]2[C@@H]3CN[C@@]1(C(=O)NCc1cccc4ccccc14)C[C@@H]3CN2CC(N)=O` (relative stereo) [IF-84], the IC50 (read-out: Anti-rabies activity) lay within 10 to 30 µM.
Still for that read-out and setting: under `NC(=O)CN1C[C@H]2C[C@]3(C(=O)NCc4cccc5ccccc45)NC[C@H]2[C@H]1[C@H]3CCc1ccccc1` (relative stereo) [IF-85] stands 10 to 30 µM.
Still for that read-out and setting: then `CC(C)CC[C@@H]1[C@@H]2[C@@H]3CN[C@@]1(C(=O)NCc1ccc(F)cc1)C[C@@H]3CN2CC(N)=O` (relative stereo) [IF-95], with 10 to 30 µM; and `NC(=O)CN1C[C@H]2C[C@]3(C(=O)NCc4ccc(F)cc4)NC[C@H]2[C@H]1[C@H]3Cc1cccc2ccccc12` (relative stereo) [IF-97], with 10 to 30 µM; and `CCCCCCNC(=O)[C@@]12C[C@@H]3CN(CC(N)=O)[C@@H]([C@@H]3CN1)[C@H]2CCc1ccccc1` (relative stereo) [IF-109], with 10 to 30 µM.
For `CCCCCCNC(=O)[C@@]12C[C@@H]3CN(CC(N)=O)[C@@H]([C@@H]3CN1)[C@H]2Cc1cccc2ccccc12` (relative stereo) [IF-110], where the note is “read-out: Anti-rabies activity”, the IC50 was less than 5 µM.
Consider `NC(=O)CN1C[C@H]2C[C@]3(C(=O)NCc4ccc(O)cc4)NC[C@H]2[C@H]1[C@H]3Cc1cccc2ccccc12` (relative stereo) [IF-137], for which the IC50 (read-out: Anti-rabies activity) was less than 5 µM.
On the same count and under the same terms, then `CC(C)CNC(=O)[C@@]12C[C@@H]3CN(Cc4cccc5ccccc45)[C@@H]([C@@H]3CN1)[C@H]2CCCNC(=N)N` (relative stereo) [IF-235], with 10 to 30 µM; and `N=C(N)NCCC[C@@H]1[C@@H]2[C@@H]3CN[C@@]1(C(=O)NCc1ccccc1)C[C@@H]3CN2Cc1cccc2ccccc12` (relative stereo) [IF-236], with 10 to 30 µM.
Same read-out and setting: under `N=C(N)NCCC[C@@H]1[C@@H]2[C@@H]3CN[C@@]1(C(=O)NCCO)C[C@@H]3CN2Cc1cccc2ccccc12` (relative stereo) [IF-239] stands 10 to 30 µM.
The same measure, in the same setting: under `CCCCCCNC(=O)[C@@]12C[C@@H]3CN(Cc4cccc5ccccc45)[C@@H]([C@@H]3CN1)[C@H]2CCCNC(=N)N` (relative stereo) [IF-243] stands less than 5 µM; under `CC(C)NC(=O)[C@@]12C[C@@H]3CN(Cc4cccc5ccccc45)[C@@H]([C@@H]3CN1)[C@H]2CCCNC(=N)N` (relative stereo) [IF-244], less than 5 µM.
For the molecule `N=C(N)NCCC[C@@H]1[C@@H]2[C@@H]3CN[C@@]1(C(=O)NCc1ccc(F)cc1)C[C@@H]3CN2Cc1cccc2ccccc12` (relative stereo) [IF-245], under “read-out: Anti-rabies activity”, the IC50 was less than 5 µM.
`NC(=O)C[C@@H]1[C@@H]2[C@@H]3CN[C@@]1(C(=O)NCc1ccccc1)C[C@@H]3CN2CC1CCCCC1` (relative stereo) [IF-246]: for the setting “read-out: Anti-rabies activity”, the IC50 was in the range of 10 to 30 µM.
Same read-out and setting: then `NC(=O)C[C@@H]1[C@@H]2[C@@H]3CN[C@@]1(C(=O)NCc1ccc(O)cc1)C[C@@H]3CN2CC1CCCCC1` (relative stereo) [IF-247], with 10 to 30 µM; and `NC(=O)C[C@@H]1[C@@H]2[C@@H]3CN[C@@]1(C(=O)NCCc1ccccc1)C[C@@H]3CN2CC1CCCCC1` (relative stereo) [IF-251], with 10 to 30 µM; and `CCCCCCNC(=O)[C@@]12C[C@@H]3CN(CC4CCCCC4)[C@@H]([C@@H]3CN1)[C@H]2CCCNC(=N)N` (relative stereo) [IF-260], with 10 to 30 µM.
